Like-named read-outs stand apart in the source and are kept apart here.

In general, IC50 refers to the point on the concentration scale where inhibition reaches its midpoint.

Test [1] concerns the target immunoproteasome (LMP7/B5i) (Homo sapiens, UniProt P20618+P28062). Briefly: Caliper-based proteasome assay, immunoproteasome chymotrypsin-like activity. The format is biochemical. The settings on record: human recombinant immunoproteasome 0.3 nM, FAM-labeled peptide substrate 1 μM, room temperature 3 h. Here is the method: (§1) A Caliper-based proteasome assay (Caliper Life Sciences, Hopkinton, Mass.) was used to measure inhibition of the chymotrypsin-like activity of both immunoproteasome (LMP7/B5i) and the constitutive proteasome (B5c) for a compound of Formula (I). Serial dilutions of test compounds were incubated with either human recombinant immunoproteasome or constitutive proteasome (0.3 nM enzyme) and a carboxyfluorescein (FAM)-labeled peptide substrate FAM-TYETFKSIMKKSPF-NH2 (1 μM) at room temperature for 3 h. The reaction buffer was 20 mM Hepes pH 7.4, 0.01% bovine serum albumin, 0.015% SDS, 0.5 mM EDTA, 1% DMSO. The reaction was then terminated with a buffer containing the known proteasome inhibitor carfilzomib at a concentration of 5 uM. The peptide cleavage reaction product was quantified on a Caliper LabChip 3000. Percent inhibition was calculated for each compound dilution and the concentration that produced 50% inhibition was calculated. This value is presented as the IC50.

The target in test [2] is constitutive proteasome (B5c) (Homo sapiens, UniProt P20618+P28074). Briefly: Caliper-based proteasome assay, constitutive proteasome chymotrypsin-like activity. The format is biochemical. The settings on record: human recombinant constitutive proteasome 0.3 nM, FAM-labeled peptide substrate 1 μM, room temperature 3 h. Here is the method:
as §1

Test [3] addresses T1, proteasome activity in HT-29 cells (enriched in constitutive proteasome) (Homo sapiens, UniProt P28074).
T1 construct: endogenous in cells; host or cells: HT-29
Briefly: Inhibition of proteasome activity in cells (Proteasome-Glo), HT-29. The format is cell-based. The settings on record: 2 hr incubation, Suc-LLVY-aminoluciferin, read-out: HT29 IC50. How it is done:
(§2) The cell-based effects of the compound of the present disclosure on immunoproteasome were determined by measuring inhibition of proteasome activity in cells using the Proteasome-Glo™ Cell-Based Reagent (Promega, Madison Wis). The Proteasome-Glo™ assay contains a specific luminogenic proteasome substrate in a buffer optimized for cell permeabilization, proteasome activity, and luciferase activity. For the chymotrypsin-like activity, the peptide substrate is Suc-LLVY-aminoluciferin (Succinyl-leucine-leucine-valine-tyrosine-aminoluciferin). Cleavage of the substrate by proteasome results in luminescent signal which is proportional to the proteasome activity. The cell line THP-1 (a monocytic leukemia cell line enriched in immunoproteasome), the cell line HT-29 (a colorectal adenocarcinoma cell line enriched in constitutive proteasome), and primary human peripheral blood mononuclear cells (PBMC) were used to assess proteasome activity. Cells were seeded in a 96-well plate at 10,000 cells per well in RPMI 1640 high glucose medium with 10% fetal bovine serum (FBS). Compound dilutions were added to cells starting at a concentration of 5 uM and decreasing in tripling dilutions. The final DMSO concentration was 1%. The concentration range was adjusted as needed for compounds of different potencies. The cells treated with compounds were incubated for 2 hr at 37° C. in 5% CO2. At the end of the 2 hour incubation period, cells were transferred to white 384 well assay plates. 20 uL of Proteasome-Glo™ Reagent was added to each well and incubated for 10 minutes at room temperature. The plate was read in the Analyst HT instrument (Molecular Devices, Sunnyvale, Calif.) using luminescence mode. The percent inhibition of activity was plotted as a function of log compound concentration. The IC50 was then calculated for each compound using Prism software from GraphPad Software Inc. (San Diego, Calif).

Test [4] concerns the target T2, proteasome activity in primary human peripheral blood mononuclear cells (PBMC) (Homo sapiens, UniProt P28062).
T2 construct: endogenous in cells; host or cells: primary human PBMC
Briefly: Inhibition of proteasome activity in cells (Proteasome-Glo), PBMC. The format is cell-based. The settings on record: 2 hr incubation, Suc-LLVY-aminoluciferin. Here is the method: as §2

Test [5] deals with T3, proteasome activity in HT-29 cells (Homo sapiens, UniProt P28074).
T3 construct: endogenous in cells; host or cells: HT-29
Briefly: Durability of binding in cells, wash-out assay (Proteasome-Glo), HT-29. The format is cell-based. As to conditions: 2 hours incubation, washout. How it is done: The durability of binding of proteasome inhibitors was assessed in cells using wash-out assays and the Proteasome-Glo™ Reagent kit. THP-1 cells, HT-29 cells, or PBMC were incubated with an 8-fold dilution series of inhibitor for 2 hours. Following 2 hours of incubation, cells were washed using 3 occasions of centrifugation followed by resuspension in culture medium. Following inhibitor washout, cells were returned to culture for either 30 minutes, 4 hours, or 18 hours. Cells were then transferred to white 384 plates, and 20 uL of Proteasome-Glo™ Reagent was added to each well for 10 minutes. Plates were then read on an Analyst HT plate reader using luminescence mode. The percent inhibition of activity was plotted as a function of log compound concentration. The IC50 was then calculated for each compound using Prism software from GraphPad.

Setting [6] is: 30 minutes in culture, read-out: HT29 (30 min) IC50.
The mark [7] stands for this setting: 4 hours in culture, read-out: HT29 (4 h) IC50.

`Cc1ccc(CNC(=O)[C@H](COc2cccc(C=C(C#N)C(=O)N(C)C)c2)NC(=O)[C@@H](NC(=O)c2cc(C)on2)[C@@H](C)O)cc1` [Example 1, N-((2S,3R)-1-(((S)-3-(3-(2-cyano-3-(dimethylamino)-3-oxoprop-1-en-1-yl)phenoxy)-1-((4-methylbenzyl)amino)-1-oxopropan-2-yl)amino)-3-hydroxy-1-oxobutan-2-yl)-5-methylisoxazole-3-carboxamide]: the IC50 is 31 nM in test [1] and 274 nM in test [2].
On the same counts, the results for `Cc1ccc(CNC(=O)[C@H](COc2cccc(C=C(C#N)C(=O)NC(C)(C)C)c2)NC(=O)[C@@H](NC(=O)c2cc(C)on2)[C@@H](C)O)c(F)c1` [Example 7, N-((2S,3R)-1-(((S)-3-(3-(3-(tert-butylamino)-2-cyano-3-oxoprop-1-en-1-yl)phenoxy)-1-((2-fluoro-4-methylbenzyl)amino)-1-oxopropan-2-yl)amino)-3-hydroxy-1-oxobutan-2-yl)-5-methylisoxazole-3-carboxamide] are 11 nM and 2140 nM.
Consider `Cc1ccc(CNC(=O)[C@H](COc2cccc(C=C(C#N)n3cncn3)c2)NC(=O)[C@@H](NC(=O)c2cc(C)on2)[C@@H](C)O)cc1` [Example 8a, N-((2S,3R)-1-(((S)-3-(3-(2-cyano-2-(1H-1,2,4-triazol-1-yl)vinyl)phenoxy)-1-((4-methylbenzyl)amino)-1-oxopropan-2-yl)amino)-3-hydroxy-1-oxobutan-2-yl)-5-methylisoxazole-3-carboxamide], for which the 50% inhibitory concentration (IC50) was 17 nM in test [1]; 120 nM in test [2]; 200 nM in test [3]; 10 nM in test [4]; 0.58 µM in test [5] (setting [6]); greater than 5 µM in test [5] (setting [7]).
`Cc1ccc(CNC(=O)[C@H](CCc2cccc(C=C(C#N)C(=O)N(C)C)c2)NC(=O)[C@@H](NC(=O)c2cc(C)on2)[C@@H](C)O)cc1` [Example 15, N-((2S,3R)-1-(((S)-4-(3-(2-cyano-3-(dimethylamino)-3-oxoprop-1-en-1-yl)phenyl)-1-((4-methylbenzyl)amino)-1-oxobutan-2-yl)amino)-3-hydroxy-1-oxobutan-2-yl)-5-methylisoxazole-3-carboxamide]: the concentration for half-maximal inhibition (IC50) in test [1] was 20 nM; in test [2] it was 61 nM; in test [3], 84 nM; in test [4] it was 13 nM; in test [5] (setting [6]), greater than 5 µM; in test [5] (setting [7]), greater than 5 µM.
With `Cc1ccc(CNC(=O)[C@H](CCCCNC(=O)C(C#N)=CC(C)C)NC(=O)[C@@H](NC(=O)c2cc(C)on2)[C@@H](C)O)cc1` [Example 21, N-((2S,3R)-1-(((S)-6-(2-cyano-4-methylpent-2-enamido)-1-((4-methylbenzyl)-amino)-1-oxohexan-2-yl)amino)-3-hydroxy-1-oxobutan-2-yl)-5-methylisoxazole-3-carboxamide], the 50% inhibitory concentration (IC50) in test [1] was 5 nM; in test [2], 143 nM; in test [3], 646 nM; in test [4], 23 nM; in test [5] (setting [6]), greater than 5 µM.
As to `Cc1ccc(CNC(=O)[C@H](CCCCNC(=O)C(C#N)=CC(C)(C)C)NC(=O)[C@@H](C)NC(=O)c2cc(C)on2)cc1` [Example 21d, N—((R)-1-(((S)-6-(2-cyano-4,4-dimethylpent-2-enamido)-1-((4-methylbenzyl)amino)-1-oxohexan-2-yl)amino)-1-oxopropan-2-yl)-5-methylisoxazole-3-carboxamide], the figures for the IC50 in test [1] and in test [2] were 144 nM and 3950 nM, respectively.
For `Cc1ccc(CNC(=O)[C@H](CCCCN(C)C(=O)C(C#N)=CC(C)C)NC(=O)[C@@H](NC(=O)c2cc(C)on2)[C@@H](C)O)cc1` [Example 22, N-((2S,3R)-1-(((S)-6-(2-cyano-N,4-dimethylpent-2-enamido)-1-((4-methylbenzyl)-amino)-1-oxohexan-2-yl)amino)-3-hydroxy-1-oxobutan-2-yl)-5-methylisoxazole-3-carboxamide], in that order: 37 nM and 704 nM.
For `Cc1ccc(CNC(=O)[C@H](Cc2cccc(NC(=O)C(C#N)=CC(C)C)c2)NC(=O)[C@@H](NC(=O)c2cc(C)on2)[C@@H](C)O)cc1` [Example 24, N-((2S,3R)-1-(((S)-3-(3-(2-cyano-4-methylpent-2-enamido)phenyl)-1-((4-methyl-benzyl)amino)-1-oxopropan-2-yl)amino)-3-hydroxy-1-oxobutan-2-yl)-5-methylisoxazole-3-carboxamide], in that order: 64 nM and 3210 nM.
`Cc1ccc(CNC(=O)[C@H](Cc2cccc(N(C)C(=O)C(C#N)=CC(C)C)c2)NC(=O)[C@@H](NC(=O)c2cc(C)on2)[C@@H](C)O)cc1` [Example 25, N-((2S,3R)-1-(((S)-3-(3-(2-cyano-N,4-dimethylpent-2-enamido)phenyl)-1-((4-methylbenzyl)amino)-1-oxopropan-2-yl)amino)-3-hydroxy-1-oxobutan-2-yl)-5-methylisoxazole-3-carboxamide]: the IC50 in test [1] was 29 nM; in test [2], 1450 nM; in test [3] it was 1180 nM; in test [4] it was 15 nM; in test [5] (setting [6]) it was greater than 5 µM; in test [5] (setting [7]), greater than 5 µM.
For `Cc1ccc(CNC(=O)[C@H](Cc2cccc(N(C)C(=O)C(C#N)=CC(C)C)c2)NC(=O)[C@@H](NC(=O)c2cc(C)on2)[C@@H](C)O)c(F)c1` [Example 27, N-((2S,3R)-1-(((S)-3-(3-(2-cyano-N,4-dimethylpent-2-enamido)phenyl)-1-((2-fluoro-4-methylbenzyl)amino)-1-oxopropan-2-yl)amino)-3-hydroxy-1-oxobutan-2-yl)-5-methylisoxazole-3-carboxamide], the half-maximal inhibitory concentration (IC50) was 21 nM in test [1]; 147 nM in test [2]; 360 nM in test [3]; 13 nM in test [4]; 3.8 µM in test [5] (setting [6]); greater than 5 µM in test [5] (setting [7]).
Consider `Cc1ccc(CNC(=O)[C@H](CC2CCN(C(=O)C(C#N)=CC(C)C)CC2)NC(=O)[C@@H](NC(=O)c2cc(C)on2)[C@@H](C)O)cc1` [Example 29, N-((2S,3R)-1-(((S)-3-(1-(2-cyano-4-methylpent-2-enoyl)piperidin-4-yl)-1-((4-methylbenzyl)amino)-1-oxopropan-2-yl)amino)-3-hydroxy-1-oxobutan-2-yl)-5-methylisoxazole-3-carboxamide], for which the IC50 in test [1] worked out at 103 nM; in test [2], 788 nM.
